For 69 compounds, IC50 results are on record in patent publication US20110053897A1 (IRM LLC, priority 2009, published 2011).

For the first experiment, the target named is T1, Syk kinase (Homo sapiens, UniProt P43405).
T1 construct: purchased
The experiment can be described thus: Syk kinase inhibition, Caliper LabChip off-chip mobility-shift kinase assay. It is filed as biochemical. The settings on record: Caliper LabChip assay; read-out: Syk Enzyme IC50. In short, it runs like this: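 Purified Syk pre-incubated 15 min with compound in 100 mM HEPES pH 7.5, 1 mM DTT, 10 mM MgCl2 or MnCl2, 0.002% Brij-35, then 1.5 μM fluorescein peptide and ATP at apparent KM added; 1–1.5 h at room temperature, 4% DMSO, EDTA stop. Microfluidic mobility-shift product/substrate conversion gave % inhibition; IC50 from 12-point series (10–0.00003 μM) by 4-parameter fit.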
In general, IC50 refers to the concentration needed to halve the response being measured. For `CCn1ccc2cc(Nc3cnccn3)nc(NC3CCC(=O)CC3)c2c1=O` [compound 969], the IC50 came to 81 nM.
Still for that read-out and setting: for `CC(C)(C)Nc1nc(Nc2cc(OCC3CCCO3)ncn2)cc2ccn(CC(O)CO)c(=O)c12` (stereo not drawn) [compound 891] the value was 60 nM.
Still for that read-out and setting: for `CC(C)(C)Nc1nc(Nc2nccs2)cc2ccn(CCO)c(=O)c12` [compound 692] the value was 1020 nM; for `CC1(Nc2nc(Nc3cc(C(C)(C)O)ccn3)cc3ccn(CCO)c(=O)c23)CCC1` [compound 704], 45 nM.
Same read-out and setting: for `CC(C)(C)Nc1nc(Nc2cnccn2)cc2ccn(CC(F)F)c(=O)c12` [compound 1023] the value was 179 nM; for `CC(C)(C)Nc1nc(-c2cnc(N)nc2)cc2ccn(CC(=O)N3CCOCC3)c(=O)c12` [compound 678], 78 nM.
As for `CC(C)(C)Nc1nc(Nc2cc(-c3cn[nH]c3)ncn2)cc2ccn(CCO)c(=O)c12` [compound 639], the IC50 was 285 nM.
The same measure, in the same setting: as for `CCn1ccc2cc(Nc3nccc(O)n3)nc(N[C@@H]3CC[C@H](O)C3)c2c1=O` [compound 958], the figure is 22 nM; as for `Cn1cc(Cl)c2cc(Nc3cnccn3)nc(N[C@H]3CC[C@@H](O)CC3)c2c1=O` [compound 785], 144 nM.
`Cc1ccnc(Nc2cc3ccn(CCN4CCOCC4)c(=O)c3c(N[C@@H](C)CO)n2)c1` [compound 995]: the concentration for half-maximal inhibition (IC50) turned out to be 53 nM.
In the case of `CCn1ccc2cc(Nc3cnccn3)nc(NC3(CO)CCC3)c2c1=O` [compound 897], the IC50 amounted to 5 nM.
Same read-out and setting: as for `COCCNC(=O)c1ccnc(Nc2cc3ccn(CCO)c(=O)c3c(NC(C)(C)C)n2)c1` [compound 682], the figure is 329 nM; as for `CC(C)(C)Nc1nc(Nc2cc(N3CCC(O)CC3)ncn2)cc2ccn(CCO)c(=O)c12` [compound 634], 161 nM; as for `CCn1ccc2cc(Nc3cnccn3)nc(Nc3ccc(C(=O)NCCO)cc3)c2c1=O` [compound 831], 213 nM.
Same read-out and setting: for `N#CCn1ccc2cc(Nc3cnccn3)nc(NC3CCCC3)c2c1=O` [compound 753] the value was 27 nM.
Same read-out and setting: for `CC(C)(C)Nc1nc(Nc2cc(CN3CCOCC3)ccn2)cc2ccn(CCO)c(=O)c12` [compound 603] the value was 56 nM.
`CC(C)(C)Nc1nc(-c2cnc(N)nc2)cc2ccn(CCO)c(=O)c12` [compound 899]: the IC50 worked out at 17 nM.
On the same count and under the same terms, as for `CC(C)Nc1nc(Nc2cc(-c3cccnc3)ccn2)cc2ccn(C)c(=O)c12` [compound 1046], the figure is 113 nM; as for `CCn1ccc2cc(Nc3cc(C)ccn3)nc(NC3CCC(C)(O)CC3)c2c1=O` (stereo not drawn) [compound 950], 53 nM.
On to `CC[C@@H](CO)Nc1nc(Nc2cnccn2)cc2ccn(CC)c(=O)c12` [compound 1042], for which the IC50 is 111 nM.
For the compound `Cc1ccnc(Nc2cc3ccn(C(C)C)c(=O)c3c(N[C@H]3CC[C@@H](O)C3)n2)c1` [compound 977], the IC50 was determined as 20 nM.
With `CC1(Cn2ccc3cc(-c4cnc(N)nc4)nc(NC4CCCC4)c3c2=O)COC1` [compound 760], the IC50 worked out at 128 nM.
On to `CC(C)(C)Nc1nc(Nc2cnccn2)cc2ccn(C3CS(=O)(=O)C3)c(=O)c12` [compound 1015], for which the IC50 is 138 nM.
Still for that read-out and setting: for `CC(C)(C)Nc1nc(Nc2ccncn2)cc2ccn(CCO)c(=O)c12` [compound 736] the value was 90 nM.
`CC(C)(C)Nc1nc(Nc2cc(-n3cc(C(=O)O)cn3)ncn2)cc2ccn(CCO)c(=O)c12` [compound 888]: the 50% inhibitory concentration (IC50) amounted to 24 nM.
Same read-out and setting: as for `Cc1cnccc1-c1ccnc(Nc2cc3ccn(CCO)c(=O)c3c(NC(C)(C)C)n2)c1` [compound 853], the figure is 111 nM.

Still in this experiment, the particulars now being: read-out: Syk Enzyme IC50.
`Cc1ccnc(Nc2cc3ccn(C)c(=O)c3c(N[C@H]3CC[C@H](O)CC3)n2)c1` [compound 357]: the IC50 is 41 nM.
The same measure, in the same setting: as for `COc1cncc(-c2cc3cc[nH]c(=O)c3c(Nc3ccc(C4CCN(CC(N)=O)CC4)c(C)c3)n2)n1` [compound 134], the figure is 40 nM; as for `COc1cncc(-c2cc3cc[nH]c(=O)c3c(Nc3ccc(C4CCN(CC(=O)N5CCCC5)CC4)c(C)c3)n2)n1` [compound 156], 41 nM; as for `[2H]C([2H])([2H])n1ccc2cc(Nc3cc(C)c(Cl)cn3)nc(NC(C)(C)C)c2c1=O` [compound 537], 502 nM.
On the same count and under the same terms, for `O=c1[nH]ccc2cc(-c3cncnc3)nc(Nc3ccc(C4CNC4)cc3)c12` [compound 129] the value was 109 nM.
With `Cc1ccnc(Nc2cc3ccn(C)c(=O)c3c(NC3CC3)n2)c1` [compound 534], the half-inhibitory concentration (IC50) was determined as 129 nM.
`COc1cncc(-c2cc3cc[nH]c(=O)c3c(Nc3ccc(C4CCN(CC5CCCO5)CC4)c(C)c3)n2)n1` (stereo not drawn) [compound 77]: the half-inhibitory concentration (IC50) came to 115 nM.
On the same count and under the same terms, as for `CC(C)Nc1nc(Nc2cc(CO)ccn2)cc2cc[nH]c(=O)c12` [compound 510], the figure is 34 nM.
Same read-out and setting: for `O=c1[nH]ccc2cc(Nc3cc(Cl)ccn3)nc(NC3CC3)c12` [compound 481] the value was 122 nM.
Same read-out and setting: for `COCCN1CCC(c2ccc(Nc3nc(-c4cnc(C)nc4)cc4cc[nH]c(=O)c34)cc2C)CC1` [compound 71] the value was 14 nM; for `COc1cncc(-c2cc3cc[nH]c(=O)c3c(Nc3ccc(C4CCN(C5COC5)CC4)c(C)c3)n2)n1` [compound 164], 287 nM.
As for `C=C(C)c1cc2cc[nH]c(=O)c2c(Nc2ccc(C3CCN(C4CC4)CC3)c(C)c2)n1` [compound 229], the IC50 was determined as 743 nM.
Same read-out and setting: as for `Cc1ccnc(Nc2cc3ccn(C)c(=O)c3c(NC3CCC3)n2)c1` [compound 489], the figure is 124 nM; as for `Cc1ccnc(Nc2cc3cc[nH]c(=O)c3c(Nc3ccc(N4CCOCC4)cc3)n2)c1` [compound 480], 15 nM; as for `O=c1[nH]ccc2cc(-c3cncc(NC4CC4)n3)nc(Nc3ccc(N4CCOCC4)cc3)c12` [compound 48], 83 nM.
The same measure, in the same setting: as for `COCCOCC(=O)N1CCC(c2ccc(Nc3nc(-c4cncc(OC)n4)cc4cc[nH]c(=O)c34)cc2)CC1` [compound 27], the figure is 44 nM; as for `Cc1ccnc(Nc2cc3ccn(C)c(=O)c3c(NC(C)(C)CO)n2)c1` [compound 486], 45 nM.
On the same count and under the same terms, for `CCNC(=O)c1ccc(Nc2nc(Nc3cc(Cl)ccn3)cc3ccn(C)c(=O)c23)cc1` [compound 382] the value was 362 nM.
Take `Cn1ccc2cc(Nc3ccc(C(N)=O)cn3)nc(N)c2c1=O` [compound 574]: the IC50 amounted to 142 nM.
Still for that read-out and setting: for `Cc1ccnc(Nc2cc3ccn(C)c(=O)c3c(N[C@H]3CC[C@@H](O)CC3)n2)c1` [compound 326] the value was 32 nM.
In the case of `Cc1nc(N)ncc1-c1cc2cc[nH]c(=O)c2c(Nc2ccc([C@H]3CC[C@H](N4CCOCC4)CC3)cc2)n1` [compound 101], the concentration for half-maximal inhibition (IC50) turned out to be 668 nM.
Take `CCn1ccc2cc(Nc3cc(C)ccn3)nc(N[C@@H](C)CO)c2c1=O` [compound 359]: the IC50 was determined as 25 nM.
On the same count and under the same terms, for `COCCN1CC(c2ccc(Nc3nc(-c4cncc(OC)n4)cc4cc[nH]c(=O)c34)cc2)C1` [compound 150] the value was 83 nM; for `COCCCc1cc2cc[nH]c(=O)c2c(Nc2ccc(N3CCOCC3)cc2)n1` [compound 240], 356 nM.
Consider `Cc1ncc(-c2cc3cc[nH]c(=O)c3c(Nc3ccc(C4CCN(CCCF)CC4)c(C)c3)n2)cn1` [compound 72], for which the IC50 worked out at 12 nM.
The same measure, in the same setting: as for `COc1ccc(Nc2nc(Nc3cc(C)ccn3)cc3cc[nH]c(=O)c23)cc1OC` [compound 371], the figure is 233 nM; as for `Cc1ccnc(Nc2cc3ccn(CCN(C)C)c(=O)c3c(N[C@H]3CC[C@@H](O)CC3)n2)c1` [compound 386], 49 nM; as for `COCCN1CCC(c2ccc(Nc3nc(-c4cncnc4)cc4cc[nH]c(=O)c34)cc2F)CC1` [compound 198], 31 nM.
For the compound `Cn1ccc2cc(Nc3cnccn3)nc(Nc3ccc(C4CCNCC4)cc3)c2c1=O` [compound 341], the half-inhibitory concentration (IC50) was 112 nM.
Consider `CN(C)CCn1ccc2cc(Nc3cc(Cl)ccn3)nc(N[C@H]3CC[C@@H](O)CC3)c2c1=O` [compound 388], for which the IC50 amounted to 42 nM.
The same measure, in the same setting: as for `COc1cncc(-c2cc3cc[nH]c(=O)c3c(Nc3ccc(C4CCN(CC(O)CO)CC4)c(C)c3)n2)n1` (stereo not drawn) [compound 166], the figure is 3 nM.
As to `CCn1ccc2cc(Nc3cc(C)ccn3)nc(N[C@@H]3CCC[C@@H]3O)c2c1=O` [compound 418], the half-maximal inhibitory concentration (IC50) came to 182 nM.
For the compound `CCN1CCN(CCCc2ccc(Nc3nc(-c4cncc(OC)n4)cc4cc[nH]c(=O)c34)cc2)CC1` [compound 41], the IC50 is 42 nM.
As for `CCN(CC)CCNC(=O)c1ccc(Nc2nc(Nc3cc(C)ccn3)cc3ccn(C)c(=O)c23)cc1` [compound 331], the IC50 stood at 748 nM.
Still for that read-out and setting: for `CC(C)Nc1nc(Nc2ccc(C(N)=O)cn2)cc2cc[nH]c(=O)c12` [compound 540] the value was 206 nM; for `O=c1c2c(N[C@H]3CCOC3)nc(Nc3cnccn3)cc2ccn1CCO` [compound 375], 14 nM.
As to `CCN1CCN(CCc2ccc(Nc3nc(-c4cncnc4)cc4c(F)c[nH]c(=O)c34)cc2)CC1` [compound 438], the concentration for half-maximal inhibition (IC50) came out at 289 nM.
Same read-out and setting: as for `Cc1ccnc(Nc2cc3cc[nH]c(=O)c3c(N[C@H]3CC[C@@H](O)CC3)n2)c1` [compound 303], the figure is 17 nM.
As for `Cc1ccnc(Nc2cc3cc[nH]c(=O)c3c(NC[C@H](C)O)n2)c1` [compound 501], the IC50 came to 38 nM.
Still for that read-out and setting: as for `COc1cncc(-c2cc3cc[nH]c(=O)c3c(Nc3ccc(C4CCN(CCC#N)CC4)c(C)c3)n2)n1` [compound 128], the figure is 79 nM.
`CC(C)Nc1nc(Nc2cnccn2)cc2ccn(CCN3CCOCC3)c(=O)c12` [compound 320]: the IC50 worked out at 200 nM.
Same read-out and setting: as for `COc1cncc(-c2cc3cc[nH]c(=O)c3c(Nc3ccc(C4CCN(C(=O)[C@@H](C)OC)CC4)c(C)c3)n2)n1` [compound 57], the figure is 47 nM; as for `CC(=O)c1cc2cc[nH]c(=O)c2c(Nc2ccc(C3CCN(C4CC4)CC3)c(C)c2)n1` [compound 221], 253 nM.
